{"source": "patent US20250367185A1", "about": "“TRANSLESION SYNTHESIS POLYMERASE INHIBITORS AND USES THEREOF” (THE UNIVERSITY OF VERMONT AND STATE AGRICULTURAL COLLEGE, priority 2022, published 2025)", "key": {"[1]": {"system": "SARS-COV-2 variants (alpha, beta, gamma, delta, BA.1, BA.2) and USA-WA1/2020", "assay_type": "cell-based", "settings": "10 μM, 48 hours, A549-ACE2+ cells"}, "[2]": {"system": "SARS-COV-2 variants (alpha, beta, gamma, delta, BA.1, BA.2) and USA-WA1/2020", "assay_type": "cell-based", "settings": "10 μM, 48 hours, A549-ACE2+ cells", "remark": "listed apart in the source"}}}
{"molecule": "CC(C)CC(=O)c1c(Nc2ccc(C(=O)O)cc2Cl)[nH]c2c(Cl)ccc([N+](=O)[O-])c2c1=O", "note": "[Compound 1, 3-chloro-4-((8-chloro-3-(3-methylbutanoyl)-5-nitro-4-oxo-1,4-dihydroquinolin-2-yl)amino)benzoic acid]", "values": [{"measurement": "viral mRNA levels", "setting": "[1]", "value": "reduces"}, {"measurement": "percentage of viral nucleocapsid-positive cells", "setting": "[2]", "value": "reduces"}]}
